These results are taken from a melting point compilation (Tetko et al.; mined from patent text by program, amines drawn as free bases though some values may be those of a salt).

Structures are written as SMILES.

Usually melting point stands for the temperature of the solid-liquid transition.

`O=S(=O)(Nc1ccccc1OC(c1ccncc1)C1CCNCC1)c1ccc2cc(Br)ccc2c1` (centres undefined): the melting point was in the range of 197 to 200 °C.

Regarding `COC=C(C(=O)OC)c1ccccc1Oc1ncnc(F)c1F`, the melting point amounted to 69 °C. `Cc1ccc(C#Cc2ccc3c(c2)C(C)(C)CCC3(C)C)cc1` displayed a melting point of 99 °C. For the compound `NC(=O)c1sc2cnccc2c1Oc1ccc(C(=O)N2CCOCC2)cc1`, the melting point is more than 260 °C. For the compound `Cc1ccc(-c2cccc(NC(=O)Nc3cccc4c3CC(O)CC4)c2)cc1` (centres undefined), the melting point lay in the range of 217 to 219 °C. To `CCOC(=O)Nc1ccc2c(c1)C(c1ccccc1Cl)SCCC(=O)N2` (centres undefined) belongs 229 to 231 °C; to `CCc1cccc2c1C(=O)N1CCC[C@H]1c1c(C(=O)OC(C)(C)C)ncn1-2`, 155 to 156 °C. `CC(C)(C)c1ccc(C(=O)Nc2cn3cc(-c4cnco4)ccc3n2)cn1` showed a melting point of 251 to 253 °C. `CN1CCN(c2ccccc2C2=NC(C)(C)CO2)C(c2cccs2)C1` (centres undefined) showed a melting point of 114 to 115 °C. The same measure for `CC(C)c1nn(-c2ccc3ccccc3n2)c(-c2ccc(F)cc2)c1Br`: 110 to 114 °C; for `COC(=O)c1ccc(C2C(=O)Oc3c2cc(C(C)(C)C)cc3C(C)(C)C)cc1` (centres undefined): 135 to 136 °C; for `CCC1CC(=O)CC23CCN(C#N)C(Cc4ccc(OC)cc42)C13` (centres undefined): 141 to 145 °C. `Cc1nc(-n2c(C)ccc2C)nc(C)c1Br` registered a melting point of 64 to 65 °C. The same measure for `O=S1c2ccccc2Nc2nccnc21` (centres undefined): 261 to 263 °C; for `COC(=O)CCCc1cc2nc(Cl)ccc2n1S(=O)(=O)c1cccc(-c2cscn2)c1`: 147 to 148 °C; for `CCOc1nn(-c2ccc(C(F)(F)F)cn2)cc1CCCOc1ccc(CCC(=O)O)cc1OC`: 131 to 132 °C. The compound `C#Cc1ccc2c(c1)C(c1ccccc1Cl)=NCc1nnc(C)n1-2` gave a melting point of 304 to 306 °C. `O=S(=O)(Nc1ccc(Cl)nc1I)c1ccc2ncccc2c1` had a melting point of more than 250 °C. The same measure for `O=[N+]([O-])c1ccc(C=Cc2ccc(N(CCCCCCO)CCCCCCO)cc2)cc1`: 126 to 128 °C; for `COC(=O)c1ccc(NC(=O)CNc2ccccc2F)cc1`: 169 to 171 °C; for `Cn1cccc1S(=O)(=O)NC(C)(C)C`: 125 to 126 °C. For the compound `CC(C)c1cc(C(C)C)c(C(=O)Nc2ccc(C(=O)O)cc2)[nH]1`, the melting point lay in the range of 225 to 226 °C. `CNC(=O)c1cc(C)nc(NC(=O)c2cc(Cl)nn2-c2ncccc2Cl)n1` yielded a melting point of 198 to 199 °C. For `CCC(O)(C#Cc1ncn2c1CN(C)C(=O)c1cc(F)ccc1-2)CC`, the melting point fell in the range of 135 to 136 °C.

On to `Nc1ccccc1OCCCCCN1CCC(OC(c2ccccc2)c2ccccc2)CC1`, for which the melting point lay in the range of 80 to 81 °C.

Consider `CCCCCCC(=Cc1ccc(-c2nnn[nH]2)cc1)C(OC)=C1SC(=S)NC1=O`, for which the melting point was more than 300 °C. The same measure for `COC(=O)c1ccccc1NS(=O)(=O)c1nc2nc(C)cc(C)n2n1`: 170 °C.

`[N-]=[N+]=NCCc1cccc2[nH]cc(S(=O)(=O)c3cccc(F)c3)c12` displayed a melting point of 136 to 138 °C. `CCN(CC)CCOc1ccc(Nc2ncc3c(n2)N(C)C(=O)N(c2c(Cl)cccc2Cl)C3)cc1` came in with a melting point of 123 to 124 °C.

With `CCC(=O)Oc1cc(OC)cc(OC)c1C(=O)C=Cc1cccs1`, the melting point stood at 127 °C. Compound `COCCOc1cc2ncnc(Nc3cc(O)c(Cl)cc3F)c2cc1OC` showed a melting point of more than 250 °C. The same measure for `C[C@@H]1C(=O)C[C@H]2C[C@@H]1OO[C@@]2(C)/C=C/c1cc(C(F)(F)F)nc2c(Cl)cc(Cl)cc12`: 196 °C; for `CS(=O)(=O)Cc1cc(C(=O)CBr)ccc1OCc1ccccc1`: 143 to 144 °C; for `Cn1nc(-c2ccc(S(C)(=O)=O)cc2Cl)c2c1CCCC2=O`: 208 °C.
